Assay results taken from patent US20230085307A1, “PYRIDAZINONE COMPOUND AND HERBICIDE” (NISSAN CHEMICAL CORPORATION, priority 2019, published 2023).

Key:
Chinese sprangletop = experiment: Test Example 3: herbicidal effect by foliage application, Wagner pot (Table 18, symbol D); type: in vivo, chinese sprangletop (Leptochloa chinensis); details: amount of applied herbicide 320 g/ha
Procedure, shortened: (§1)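 Plants were sown in alluvial soil held under 0.1–0.5 cm standing water and grown 14 days in a greenhouse at 25–30 °C. An emulsifiable formulation, water-diluted to the set dose, was then sprayed onto the foliage, and effects were scored three weeks later using previously defined criteria.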

persian speedwell [1] = experiment: Test Example 4: herbicidal effect by soil treatment (Table 19, symbol R); type: in vivo, Persian speedwell (Veronica persica); details: amount of applied herbicide 320 g/ha
Procedure, shortened: (§2)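 Herbicidal effect was rated 3 weeks after treatment, using the scoring criteria of an earlier test. The compound, formulated as an emulsion and diluted in water to a set herbicide amount, had been sprayed uniformly on soil over freshly sown seeds. Growth took place in a greenhouse at 25° C. to 30° C.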

redroot pigweed [2] = experiment: Test Example 4: herbicidal effect by soil treatment (Table 19, symbol N); type: in vivo, redroot pigweed (Amaranthus retroflexus); details: amount of applied herbicide 320 g/ha
Procedure, shortened: as §2

Japanese bulrush = experiment: Test Example 1: herbicidal activity, application before weed generation under submerged conditions (Table 16, symbol B); type: in vivo, Japanese bulrush (Schoenoplectus juncoides); details: 320 g/ha applied herbicide
Procedure, shortened: (§3)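 Submerged Wagner pots (alluvial soil, 4 cm water) sown with weed seeds and planted with 2.5-leaf rice seedlings; emulsifiable concentrate diluted in water applied to water surface on sowing day. Held in greenhouse at 25-30 °C; injury scored 0-5 by herbicidal rate after three weeks.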

chickweed = experiment: Test Example 5: herbicidal effect by foliage application, plastic box (Table 20, symbol P); type: in vivo, common chickweed (Stellaria media); details: foliage application, AAH 320 g/ha, evaluated three weeks after application
Procedure, shortened: (§4)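 Foliar spray test: emulsion formulation diluted in water to a set application rate, sprayed onto 14-day-old plants raised in diluvial soil at 25° C to 30° C under glass. Both herbicidal effect and crop effect rated visually three weeks later.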

wild oat [3] = experiment: Test Example 5: herbicidal effect by foliage application, plastic box (Table 20, symbol I); type: in vivo, wild oat (Avena fatua); details: foliage application, AAH 320 g/ha, evaluated three weeks after application
Procedure, shortened: as §4

redroot pigweed [4] = experiment: Test Example 5: herbicidal effect by foliage application, plastic box (Table 20, symbol N); type: in vivo, redroot pigweed (Amaranthus retroflexus); details: foliage application, AAH 320 g/ha, evaluated three weeks after application
Procedure, shortened: as §4

barnyard grass [5] = experiment: Test Example 3: herbicidal effect by foliage application, Wagner pot (Table 18, symbol H); type: in vivo, barnyard grass (Echinochloa crus-galli); details: amount of applied herbicide 320 g/ha
Procedure, shortened: as §1

windgrass [6] = experiment: Test Example 5: herbicidal effect by foliage application, plastic box (Table 20, symbol L); type: in vivo, windgrass (Apera spica-venti); details: foliage application, AAH 320 g/ha, evaluated three weeks after application
Procedure, shortened: as §4

late watergrass = experiment: Test Example 1: herbicidal activity, application before weed generation under submerged conditions (Table 16, symbol A); type: in vivo, late watergrass (Echinochloa oryzicola); details: 320 g/ha applied herbicide
Procedure, shortened: as §3

windgrass [7] = experiment: Test Example 4: herbicidal effect by soil treatment (Table 19, symbol L); type: in vivo, windgrass (Apera spica-venti); details: amount of applied herbicide 320 g/ha
Procedure, shortened: as §2

velvetleaf [8] = experiment: Test Example 4: herbicidal effect by soil treatment (Table 19, symbol M); type: in vivo, velvetleaf (Abutilon theophrasti); details: amount of applied herbicide 320 g/ha
Procedure, shortened: as §2

velvetleaf [9] = experiment: Test Example 5: herbicidal effect by foliage application, plastic box (Table 20, symbol M); type: in vivo, velvetleaf (Abutilon theophrasti); details: foliage application, AAH 320 g/ha, evaluated three weeks after application
Procedure, shortened: as §4

wild oat [10] = experiment: Test Example 4: herbicidal effect by soil treatment (Table 19, symbol I); type: in vivo, wild oat (Avena fatua); details: amount of applied herbicide 320 g/ha
Procedure, shortened: as §2

blackgrass [11] = experiment: Test Example 5: herbicidal effect by foliage application, plastic box (Table 20, symbol J); type: in vivo, blackgrass (Alopecurus myosuroides); details: foliage application, AAH 320 g/ha, evaluated three weeks after application
Procedure, shortened: as §4

green foxtail [12] = experiment: Test Example 5: herbicidal effect by foliage application, plastic box (Table 20, symbol G); type: in vivo, green foxtail (Setaria viridis); details: foliage application, AAH 320 g/ha, evaluated three weeks after application
Procedure, shortened: as §4

southern crabgrass [13] = experiment: Test Example 5: herbicidal effect by foliage application, plastic box (Table 20, symbol F); type: in vivo, southern crabgrass (Digitaria ciliaris); details: foliage application, AAH 320 g/ha, evaluated three weeks after application
Procedure, shortened: as §4

Italian ryegrass [14] = experiment: Test Example 4: herbicidal effect by soil treatment (Table 19, symbol K); type: in vivo, Italian ryegrass (Lolium multiflorum); details: amount of applied herbicide 320 g/ha
Procedure, shortened: as §2

green foxtail [15] = experiment: Test Example 4: herbicidal effect by soil treatment (Table 19, symbol G); type: in vivo, green foxtail (Setaria viridis); details: amount of applied herbicide 320 g/ha
Procedure, shortened: as §2

barnyard grass [16] = experiment: Test Example 4: herbicidal effect by soil treatment (Table 19, symbol H); type: in vivo, barnyard grass (Echinochloa crus-galli); details: amount of applied herbicide 320 g/ha
Procedure, shortened: as §2

rice flat sedge = experiment: Test Example 3: herbicidal effect by foliage application, Wagner pot (Table 18, symbol E); type: in vivo, rice flat sedge (Cyperus iria); details: amount of applied herbicide 320 g/ha
Procedure, shortened: as §1

false cleavers = experiment: Test Example 4: herbicidal effect by soil treatment (Table 19, symbol Q); type: in vivo, false cleavers (Galium spurium); details: amount of applied herbicide 320 g/ha
Procedure, shortened: as §2

oval-leafed pondweed = experiment: Test Example 1: herbicidal activity, application before weed generation under submerged conditions (Table 16, symbol C); type: in vivo, oval-leafed pondweed (Monochoria vaginalis); details: 320 g/ha applied herbicide
Procedure, shortened: as §3

barnyard grass [17] = experiment: Test Example 5: herbicidal effect by foliage application, plastic box (Table 20, symbol H); type: in vivo, barnyard grass (Echinochloa crus-galli); details: foliage application, AAH 320 g/ha, evaluated three weeks after application
Procedure, shortened: as §4

southern crabgrass [18] = experiment: Test Example 4: herbicidal effect by soil treatment (Table 19, symbol F); type: in vivo, southern crabgrass (Digitaria ciliaris); details: amount of applied herbicide 320 g/ha
Procedure, shortened: as §2

Italian ryegrass [19] = experiment: Test Example 5: herbicidal effect by foliage application, plastic box (Table 20, symbol K); type: in vivo, Italian ryegrass (Lolium multiflorum); details: foliage application, AAH 320 g/ha, evaluated three weeks after application
Procedure, shortened: as §4

lambsquarters [20] = experiment: Test Example 5: herbicidal effect by foliage application, plastic box (Table 20, symbol O); type: in vivo, lambsquarters (Chenopodium album); details: foliage application, AAH 320 g/ha, evaluated three weeks after application
Procedure, shortened: as §4

lambsquarters [21] = experiment: Test Example 4: herbicidal effect by soil treatment (Table 19, symbol O); type: in vivo, lambsquarters (Chenopodium album); details: amount of applied herbicide 320 g/ha
Procedure, shortened: as §2

persian speedwell [22] = experiment: Test Example 5: herbicidal effect by foliage application, plastic box (Table 20, symbol R); type: in vivo, Persian speedwell (Veronica persica); details: foliage application, AAH 320 g/ha, evaluated three weeks after application
Procedure, shortened: as §4

blackgrass [23] = experiment: Test Example 4: herbicidal effect by soil treatment (Table 19, symbol J); type: in vivo, blackgrass (Alopecurus myosuroides); details: amount of applied herbicide 320 g/ha
Procedure, shortened: as §2

Row | SMILES | herbicidal effect on D: Chinese sprangletop (Chinese sprangletop) | herbicidal effect on R: persian speedwell (persian speedwell [1]) | herbicidal effect on N: redroot pigweed (redroot pigweed [2]) | Herbicidal effect on B: Japanese bulrush (grade 0-5) (Japanese bulrush) | P: chickweed, herbicidal effect (criteria 0-5) (chickweed) | I: wild oat, herbicidal effect (criteria 0-5) (wild oat [3]) | N: redroot pigweed, herbicidal effect (criteria 0-5) (redroot pigweed [4]) | herbicidal effect on H: barnyard grass (barnyard grass [5]) | L: windgrass, herbicidal effect (criteria 0-5) (windgrass [6]) | Herbicidal effect on A: late watergrass (grade 0-5) (late watergrass) | herbicidal effect on L: windgrass (windgrass [7]) | herbicidal effect on M: velvetleaf (velvetleaf [8]) | M: velvetleaf, herbicidal effect (criteria 0-5) (velvetleaf [9]) | herbicidal effect on I: wild oat (wild oat [10]) | J: blackgrass, herbicidal effect (criteria 0-5) (blackgrass [11]) | G: green foxtail, herbicidal effect (criteria 0-5) (green foxtail [12]) | F: southern crabgrass, herbicidal effect (criteria 0-5) (southern crabgrass [13]) | herbicidal effect on K: Italian ryegrass (Italian ryegrass [14]) | herbicidal effect on G: green foxtail (green foxtail [15]) | herbicidal effect on H: barnyard grass (barnyard grass [16]) | further results
1 | Cc1nn(C)c(=O)c(-c2c(-c3ccc(SCC(F)F)cc3)sc3ccc(F)cc23)c1O [2-260] | 3 (Herbicidal rate of 40% or more and less than 70%) | 3 (Herbicidal rate of 40% or more and less than 70%) | 5 (Herbicidal rate of 90% or more (almost completely withered)) | 0 (Herbicidal rate of 5% or less (almost no effect)) | 5 (Herbicidal rate of 90% or more (almost completely withered)) | 5 (Herbicidal rate of 90% or more (almost completely withered)) | 5 (Herbicidal rate of 90% or more (almost completely withered)) | 5 (Herbicidal rate of 90% or more (almost completely withered)) | 5 (Herbicidal rate of 90% or more (almost completely withered)) | 3 (Herbicidal rate of 40% or more and less than 70%) | 0 (Herbicidal rate of 5% or less (almost no effect)) | 3 (Herbicidal rate of 40% or more and less than 70%) | 4 (Herbicidal rate of 70% or more and less than 90%) | 0 (Herbicidal rate of 5% or less (almost no effect)) | 4 (Herbicidal rate of 70% or more and less than 90%) | 5 (Herbicidal rate of 90% or more (almost completely withered)) | 5 (Herbicidal rate of 90% or more (almost completely withered)) | 0 (Herbicidal rate of 5% or less (almost no effect)) | 5 (Herbicidal rate of 90% or more (almost completely withered)) | 3 (Herbicidal rate of 40% or more and less than 70%) | herbicidal effect on E: rice flat sedge (rice flat sedge): 3 (Herbicidal rate of 40% or more and less than 70%); herbicidal effect on Q: false cleavers (false cleavers): 0 (Herbicidal rate of 5% or less (almost no effect)); Herbicidal effect on C: oval-leafed pondweed (grade 0-5) (oval-leafed pondweed): 0 (Herbicidal rate of 5% or less (almost no effect)); H: barnyard grass, herbicidal effect (criteria 0-5) (barnyard grass [17]): 5 (Herbicidal rate of 90% or more (almost completely withered)); herbicidal effect on F: southern crabgrass (southern crabgrass [18]): 4 (Herbicidal rate of 70% or more and less than 90%); K: Italian ryegrass, herbicidal effect (criteria 0-5) (Italian ryegrass [19]): 5 (Herbicidal rate of 90% or more (almost completely withered)); O: lambsquarters, herbicidal effect (criteria 0-5) (lambsquarters [20]): 5 (Herbicidal rate of 90% or more (almost completely withered)); herbicidal effect on O: lambsquarters (lambsquarters [21]): 5 (Herbicidal rate of 90% or more (almost completely withered)); R: persian speedwell, herbicidal effect (criteria 0-5) (persian speedwell [22]): 5 (Herbicidal rate of 90% or more (almost completely withered))
2 | Cc1nn(C)c(=O)c(-c2c(-c3cccc(OCc4ccccc4)c3)sc3ccc(F)cc23)c1O [2-267] | 5 (Herbicidal rate of 90% or more (almost completely withered)) | 4 (Herbicidal rate of 70% or more and less than 90%) | 2 (Herbicidal rate of 20% or more and less than 40%) | 0 (Herbicidal rate of 5% or less (almost no effect)) | 5 (Herbicidal rate of 90% or more (almost completely withered)) | 0 (Herbicidal rate of 5% or less (almost no effect)) | 4 (Herbicidal rate of 70% or more and less than 90%) | 5 (Herbicidal rate of 90% or more (almost completely withered)) | 0 (Herbicidal rate of 5% or less (almost no effect)) | 2 (Herbicidal rate of 20% or more and less than 40%) | 0 (Herbicidal rate of 5% or less (almost no effect)) | 0 (Herbicidal rate of 5% or less (almost no effect)) | 3 (Herbicidal rate of 40% or more and less than 70%) | 0 (Herbicidal rate of 5% or less (almost no effect)) | 2 (Herbicidal rate of 20% or more and less than 40%) | 5 (Herbicidal rate of 90% or more (almost completely withered)) | 4 (Herbicidal rate of 70% or more and less than 90%) | 0 (Herbicidal rate of 5% or less (almost no effect)) | 3 (Herbicidal rate of 40% or more and less than 70%) | 5 (Herbicidal rate of 90% or more (almost completely withered)) | herbicidal effect on J: blackgrass (blackgrass [23]): 0 (Herbicidal rate of 5% or less (almost no effect)); herbicidal effect on E: rice flat sedge (rice flat sedge): 3 (Herbicidal rate of 40% or more and less than 70%); herbicidal effect on Q: false cleavers (false cleavers): 0 (Herbicidal rate of 5% or less (almost no effect)); Herbicidal effect on C: oval-leafed pondweed (grade 0-5) (oval-leafed pondweed): 0 (Herbicidal rate of 5% or less (almost no effect)); H: barnyard grass, herbicidal effect (criteria 0-5) (barnyard grass [17]): 5 (Herbicidal rate of 90% or more (almost completely withered)); herbicidal effect on F: southern crabgrass (southern crabgrass [18]): 5 (Herbicidal rate of 90% or more (almost completely withered)); K: Italian ryegrass, herbicidal effect (criteria 0-5) (Italian ryegrass [19]): 3 (Herbicidal rate of 40% or more and less than 70%); O: lambsquarters, herbicidal effect (criteria 0-5) (lambsquarters [20]): 4 (Herbicidal rate of 70% or more and less than 90%); herbicidal effect on O: lambsquarters (lambsquarters [21]): 0 (Herbicidal rate of 5% or less (almost no effect)); R: persian speedwell, herbicidal effect (criteria 0-5) (persian speedwell [22]): 5 (Herbicidal rate of 90% or more (almost completely withered))
